# Patent US4226883A, “Carbamate derivatives and method for manufacture thereof” (priority 1974, dated 1980)
# Key:
# [1] = test system: green rice leafhoppers of the strain RN; experiment: Test Example 3: dust spray test (20 mesh metal gauze cylinder); assay type: in vivo, Nephotettix cincticeps; conditions: for death ratio (%), mixture with Compound No. 1 / death ratio (%), mixture with Compound No. 6* / death ratio (%), mixture with Compound No. 24* / death ratio (%), mixture with Compound No. 35* / death ratio (%), mixture with Compound No. 40* / death ratio (%), mixture with Compound No. 49* / death ratio (%), mixture with Compound No. 81* / death ratio (%), mixture with Compound No. 118* / death ratio (%), mixture with Carbofuran / death ratio (%), mixture with Methomyl: Table 9, RN; for death ratio (%), mixture with Compound No. 1: dust mixed with 1; for death ratio (%), mixture with Compound No. 6*: dust mixed with 6*; for death ratio (%), mixture with Compound No. 24*: dust mixed with 24*; for death ratio (%), mixture with Compound No. 35*: dust mixed with 35*; for death ratio (%), mixture with Compound No. 40*: dust mixed with 40*; for death ratio (%), mixture with Compound No. 49*: dust mixed with 49*; for death ratio (%), mixture with Compound No. 81*: dust mixed with 81*; for death ratio (%), mixture with Compound No. 118*: dust mixed with 118*; for death ratio (%), mixture with Carbofuran: dust mixed with Carbofuran; for death ratio (%), mixture with Methomyl: dust mixed with Methomyl; for Effect of individual compound (RN), death ratio (%) (Table 9): dust, compound alone, RN strain; for mortality at 100 mg/cylinder / mortality at 250 mg/cylinder: 2% dust, 24 hr; for mortality at 100 mg/cylinder: read-out: Mortality (%) after 24 hr., 100 mg Spray (Table 7); for mortality at 250 mg/cylinder: read-out: Mortality (%) after 24 hr., 250 mg Spray (Table 7)
# Method: The insecticides in the form of dust were tested for insecticidal activity.
# The test for insecticidal activity was performed by the following procedure. […] The dust of a test compound (pulverized by means of a shaking pulverizer made by Taira Kosakusho, Ltd.) was applied onto the tube contents at a prescribed rate by spraying from outside the metal gauze by means of a bell-jar duster. The dust of the test compound was prepared uniformly mixing 2 parts of the dust of the individual compound or 1 part each of the dusts of the mixture components (total 2 parts) and 98 parts of a carrier obtained by mixing talc and clay in equal volumes.
# [2] = test system: resistant green rice leafhoppers (R); conditions: ratio of the resistant strain to the susceptible strain (LD50); 1440 min
# Method: (1) A 20-mg portion of a given test compound was weighed out and dissolved in 10 ml of acetone. The resultant solution was diluted at proper times with acetone.
# (2) With a micro-syringe, the acetone solution of the test compound was topically applied to the thoracic region of female green rice leafhoppers at a fixed dose of 0.2 μl per head.
# (3) The female green rice leafhoppers thus treated were placed in a plastic cup prepared in advance (measuring 7 cm in diameter and 3.5 cm in depth and containing rice seeds) and kept at a constant temperature of 26±1° C. After 24 hours' standing, the dead insects were counted.
# In the case of a mixed insecticide, the LD50 was shown as a total dosage.
SMILES,"death ratio (%), mixture with Compound No. 1 [1] [%]","death ratio (%), mixture with Compound No. 6* [1] [%]","death ratio (%), mixture with Compound No. 24* [1] [%]","death ratio (%), mixture with Compound No. 35* [1] [%]","death ratio (%), mixture with Compound No. 40* [1] [%]","death ratio (%), mixture with Compound No. 49* [1] [%]","death ratio (%), mixture with Compound No. 81* [1] [%]","death ratio (%), mixture with Compound No. 118* [1] [%]","death ratio (%), mixture with Carbofuran [1] [%]","death ratio (%), mixture with Methomyl [1] [%]","Effect of individual compound (RN), death ratio (%) (Table 9) [1]",Insecticidal Activity R/S (resistant ratio) [2],mortality at 100 mg/cylinder [1] [%],mortality at 250 mg/cylinder [1] [%]
"CCCNC(=O)Oc1cccc(OCC)c1 [Compound 94, 3-ethoxyphenyl-N-n-propylcarbamate]",80.0,85.0,95.0,95.0,85.0,35.0,95.0,95.0,90.0,100,0,,,
"CCCNC(=O)Oc1ccccc1OCC [Compound 80, 2-ethoxyphenyl-N-n-propylcarbamate]",65.0,60.0,57.5,65.0,55.0,15.0,60.0,70.0,85.0,75.0,0,,,
"C=CCNC(=O)Oc1cc(C)cc(C)c1 [Compound 44, 3,5-dimethylphenyl-N-allylcarbamate]",,,,,,,,,,,,0.9,60,80
"CCNC(=O)Oc1ccccc1C(C)CC (stereo not drawn) [Compound 7, 2-sec-butylphenyl-N-ethylcarbamate]",,,,,,,,,,,,2.6,,
"CCNC(=O)Oc1ccc(C)c(C)c1 [Compound 36, 3,4-dimethylphenyl-N-ethylcarbamate]",,,,,,,,,,,,3.3,55,80
"CCNC(=O)Oc1ccccc1OC(C)C [Compound 82, 2-isopropoxyphenyl-N-ethylcarbamate]",25.0,50.0,45.0,60.0,45.0,15.0,55.0,80.0,80.0,85.0,15.0,,,
"C=CCNC(=O)Oc1ccccc1OC(C)C [Compound 85, 2-isopropoxyphenyl-N-allylcarbamate]",50.0,45.0,35.0,75.0,60.0,0,80.0,35.0,85.0,90.0,25.0,,,
"C=CCNC(=O)Oc1ccccc1C(C)CC (stereo not drawn) [Compound 10, 2-sec-butylphenyl-N-allylcarbamate]",,,,,,,,,,,,4.3,,100
"CCCNC(=O)Oc1cccc(CC)c1 [Compound 31, 3-ethylphenyl-N-n-propylcarbamate]",,,,,,,,,,,,0.5,,
"CCNC(=O)Oc1cccc(C)c1 [Compound 25, 3-methylphenyl-N-ethylcarbamate]",,,,,,,,,,,,3.7,,
"C=CCNC(=O)Oc1ccc(C)c(C)c1 [Compound 39, 3,4-dimethylphenyl-N-allylcarbamate]",,,,,,,,,,,,0.8,50,60
CCCCNC(=O)Oc1ccccc1OC(C)C [Compound 84],0,15.0,5.0,10.0,5.0,0,100,67.5,55.0,70.0,0,,,
